Where two headings read alike, the source gives them in different places.
How the values were obtained:
[1] = molecular target: T1, large-conductance calcium-activated potassium (maxi-K) channels from bovine aortic smooth muscle (Bos taurus, UniProt Q28204); assay: Patch clamp recordings of maxi-K channel currents in excised inside-out membrane patches; assay type: biochemical; conditions: for block of channel activity / effect on channel open probability: 1 μM
T1 construct: membrane patches excised from cultured bovine aortic smooth muscle cells; endogenous in cells; host or cells: cultured bovine aortic smooth muscle cells
Experimental: Pipettes were typically filled with solutions containing (mM): 150 KCl, 10 Hepes (4-(2-hydroxyethyl)-1-piperazine […]), 1 Mg, 0.01 Ca, and adjusted to pH 7.20 with 3.7 mM KOH. After forming a high resistance (>10^9 ohms) seal between the sarcolemmal membrane and the pipette, the pipette was withdrawn from the cell, forming an excised inside-out membrane patch. […] An AXOPATCH 1C amplifier (Axon Instruments, Foster City, Calif.) with a CV-4 headstage was used to control the voltage and to measure the currents flowing across the membrane patch. The input to the headstage was connected to the pipette solution with a Ag/AgCl wire, and the amplifier ground was connected to the bath solution with a Ag/AgCl wire covered with a tube filled with agar dissolved in 0.2 M KCl. Maxi-K channels were identified by their large single channel conductance (˜250 pS) and sensitivity of channel open probability to membrane potential and intracellular calcium concentration.
Data were stored on a RACAL STORE 4DS FM tape recorder (Racal Recorders, Vienna, Va.) or on digital video tape using a video casette recorder after digitizing the signal with VR-10 (Instrutech Corp., Belmont, N.Y.) PCM video encoder. The signal was also recorded on chart paper with a GOULD 2400S chart recorder (Gould Inc., Cleveland, Ohio). For quantitative analysis, the data was played into a DEC 11-73 (Digital Equipment Corp., Maynard, Mass.) after digitization with a DT2782-8D1A analogue to digital converter (Data Translation Inc., Marlboro, Mass.), or played into a Mac IIx or Quadra 700 computer (Apple Computers) after digitization with an ITC-16 interface (Instrutech Corp., Belmont, N.Y.).

[2] = molecular target: T2, [125I]ChTX receptor in bovine aortic sarcolemma membrane vesicles (Bos taurus, UniProt Q28204); assay: [125I]ChTX binding assay with sarcolemma membrane vesicles; conditions: for inhibition at 10 µM: read-out: inhibition of [125I]ChTX binding
T2 construct: bovine aortic sarcolemma membrane vesicles; from tissue; host or cells: bovine aortic sarcolemma membrane vesicles
Experimental: The interaction of [^125I]ChTX with bovine aortic sarcolemma membrane vesicles was determined under conditions as described (Vazquez et al., 1989, J. Biol. Chem. 264, 20902-20909). Briefly, sarcolemma membrane vesicles were incubated in 12×75 polystyrene tubes with ca. 25 pM [^125I]ChTX (2200 Ci/mmol), in the absence or presence of test compound, in a media consisting of 20 mM NaCl, 20 mM Tris-HCl pH 7.4, 0.1% bovine serum albumin, 0.1% digitonin. Nonspecific binding was determined in the presence of 10 nM ChTX. Incubations were carried out at room temperature until ligand binding equilibrium is achieved at ca. 90 min. At the end of the incubation period, samples were diluted with 4 mL ice-cold 100 mM NaCl, 20 mM Hepes-Tris pH 7.4 and filtered through GF/C glass fiber filters that have been presoaked in 0.5% polyethylenimine. Filters were rinsed twice with 4 mL ice-cold quench solution. Radioactivity associated with filters was determined in a gamma counter. Specific binding data in the presence of each compound (difference between total binding and nonspecific binding) was assessed relative to an untreated control.

[3] = concentrations from 1 nM to 100 μM

T2 sequence (Q28204 whole entry): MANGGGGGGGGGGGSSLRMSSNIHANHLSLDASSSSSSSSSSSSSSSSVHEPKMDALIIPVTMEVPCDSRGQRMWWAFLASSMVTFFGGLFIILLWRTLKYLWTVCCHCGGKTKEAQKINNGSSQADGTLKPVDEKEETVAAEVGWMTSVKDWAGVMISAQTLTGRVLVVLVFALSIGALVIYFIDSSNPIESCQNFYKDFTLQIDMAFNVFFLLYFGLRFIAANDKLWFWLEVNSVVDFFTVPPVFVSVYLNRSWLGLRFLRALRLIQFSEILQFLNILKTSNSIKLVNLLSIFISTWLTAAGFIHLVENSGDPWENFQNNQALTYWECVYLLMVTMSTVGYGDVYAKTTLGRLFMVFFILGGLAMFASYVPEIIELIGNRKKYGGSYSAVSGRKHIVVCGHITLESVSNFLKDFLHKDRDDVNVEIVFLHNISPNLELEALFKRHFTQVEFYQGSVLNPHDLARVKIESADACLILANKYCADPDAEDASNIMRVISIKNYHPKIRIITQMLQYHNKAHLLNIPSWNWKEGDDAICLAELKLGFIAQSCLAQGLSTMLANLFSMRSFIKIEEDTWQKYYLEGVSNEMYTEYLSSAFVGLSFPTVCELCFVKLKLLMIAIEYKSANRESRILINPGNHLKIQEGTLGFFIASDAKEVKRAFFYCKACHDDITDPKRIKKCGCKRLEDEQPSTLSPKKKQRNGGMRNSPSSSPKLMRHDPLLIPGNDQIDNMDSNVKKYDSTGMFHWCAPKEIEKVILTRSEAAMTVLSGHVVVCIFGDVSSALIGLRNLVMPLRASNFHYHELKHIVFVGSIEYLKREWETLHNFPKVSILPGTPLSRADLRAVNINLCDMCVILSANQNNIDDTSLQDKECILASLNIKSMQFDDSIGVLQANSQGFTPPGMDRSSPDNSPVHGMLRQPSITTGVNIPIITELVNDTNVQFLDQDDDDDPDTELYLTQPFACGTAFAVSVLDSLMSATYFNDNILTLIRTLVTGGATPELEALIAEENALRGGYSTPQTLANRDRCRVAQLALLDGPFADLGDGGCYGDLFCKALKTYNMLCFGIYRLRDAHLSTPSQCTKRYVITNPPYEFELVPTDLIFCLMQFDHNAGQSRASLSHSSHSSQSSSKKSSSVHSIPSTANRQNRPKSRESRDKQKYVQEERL
T2 sequence (Q28067 whole entry partner): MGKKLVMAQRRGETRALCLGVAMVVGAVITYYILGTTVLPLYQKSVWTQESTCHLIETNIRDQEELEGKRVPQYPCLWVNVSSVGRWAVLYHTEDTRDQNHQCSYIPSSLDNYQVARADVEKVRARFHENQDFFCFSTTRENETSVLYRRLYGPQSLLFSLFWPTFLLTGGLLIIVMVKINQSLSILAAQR
T1 sequence (Q28204 whole entry): as the sequence (Q28204 whole entry) above
T1 sequence (Q28067 whole entry partner): as the sequence (Q28067 whole entry partner) above

## CC(C)=CC1O[C@H]2C3OC34C(=CC[C@]3(C)[C@@]5(C)c6[nH]c7cccc(CC8OC8(C)C)c7c6C[C@@H]5CC[C@@]43O)O[C@@H]2C(C)(C)O1 (stereo partly drawn) [Compound G]
[1]
  IC50: < 0.1 nM
[1]; 0.1 nM
  channels blocked: 82%
[1]; 1 nM
  channels blocked: 98.6%
[1]; 10 nm
  channel block: > 99%
[2]
  inhibition at 10 µM: 35%

## COC(=O)C12C(O)C[C@@H](C(C)(C)O)OC1CC[C@@]1(C)[C@H]2CC[C@H]2Cc3c([nH]c4ccccc34)[C@@]21C (stereo partly drawn) [Compound E, methyl hydroxypaspalinate]
[1]
  IC50: > 10000 nM
  strength as blocker of maxi-K channels compared with Compound C: weaker
  block of channel activity / effect on channel open probability: no significant effect
[1]; 10 μM, slowly increasing over 5-10 minutes
  block of channel activity: incomplete block
[2]; [3]
  effect on [125I]ChTX binding: did not affect

## CC(C)=CCc1cccc2[nH]c3c(c12)C[C@@H]1CC[C@@]2(O)C45OC4[C@@H]4OC(C=C(C)C)OC(C)(C)[C@H]4OC5=CC[C@]2(C)[C@@]31C (stereo partly drawn) [Compound C]
[1]
  IC50: < 10 nM
[1]; 10 nM
  block of maxi-K channels: rapid and complete block
[1]; 10 nM, brief (~10 min) washout
  reversal of block during washout: not reversed
[2]
  inhibition at 10 µM: 29%

## CC(C)=CCOC(C)(C)[C@H]1O[C@H]2CC[C@]3(C)[C@@]4(C)c5[nH]c6ccc(CC=C(C)C)cc6c5C[C@@H]4CC[C@@]3(O)C23OC3[C@@H]1O (stereo partly drawn) [Compound B]
[1]
  IC50: < 1 nM
  Ki: < 1 nM
[1]; 1 nM
  block of maxi-K channels: nearly complete block

## CC(C)=CCOC(C)(C)[C@@H]1CC2OC23[C@H](CC[C@@]2(C)[C@H]3CC[C@H]3Cc4c([nH]c5ccccc45)[C@@]32C)O1 (stereo partly drawn) [Compound A]
[1]
  IC50: ~100 nM
  strength as blocker of maxi-K channels compared with Compound C: weaker
  block of channel activity / effect on channel open probability: nearly all
[1]; 10 nM
  block of maxi-K channels: blocked a small fraction of channel activity
[1]; 100 nM
  block of channel activity: approximately one half
[2]
  inhibition at 10 µM: 2%

## CC1(C)ON=C2C=C3[C@H](CC[C@@]4(C)[C@@]3(O)CC[C@H]3Cc5c([nH]c6ccccc56)[C@@]34C)O[C@@H]21 [Compound F, Paxizoline]
[1]; 10 nM
  decrease in channel activity: ~50%
[1]; excised inside-out patches, compound added to bath, read-out: [50% CHANNEL BLOCK]
  IC50: ~10 nM
[2]; concentrations above 5 μM
  effect on [125I]ChTX binding: concentration-dependent inhibition
[2]; range of 50 nM to 2 μM
  effect on amount of toxin bound to its receptor: small increase
[2]; tested from 1 nM to 100 μM
  maximum level of inhibition (saturation): ca. 32 % control

## CC(C)(O)[C@@H]1CC(O)C2(C(=O)O)C(CC[C@@]3(C)[C@H]2CC[C@H]2Cc4c([nH]c5ccccc45)[C@@]23C)O1 (stereo partly drawn) [Compound D, hydroxypaspalinic acid]
[1]
  IC50: ~1000 nM
  strength as blocker of maxi-K channels compared with Compound C: weaker
  block of channel activity / effect on channel open probability: complete block was not observed
[1]; 10 nM
  reduction in channel open probability: < 50%
[2]; [3]
  effect on [125I]ChTX binding: did not have any effect

Source: US6924306B2, “Method for treating ocular hypertension” (priority 2000, dated 2005)
